Results published in article PMC11881906, “Development of xanthone derivatives as effective broad-spectrum antimicrobials: Disrupting cell wall and inhibiting DNA synthesis” (Science Advances, 2025).
≈ marks a conversion by molar mass, not a printed value. Read-outs that look alike come from different tables or passages of the source.

What was measured:
[1] = test system: tested strains (Gram-positive and Gram-negative bacteria); assay: MIC, summary over the tested strains; type: cell-based
Experimental: MIC was determined using the broth microdilution method in accordance with Clinical and Laboratory Standards Institute guidelines. All compounds were dissolved in dimethyl sulfoxide (DMSO; final DMSO concentration of less than 0.5%) and sterile double-distilled water and then diluted with Mueller-Hinton broth (MHB). Each compound’s stock solution was serially twofold diluted, resulting in concentrations ranging from 0.39 to 100 μg/ml, and thereafter added to sterile 96-well plates. All bacterial cell suspensions were adjusted in MHB to attain a starting inoculum of 1 × 10^6 cells/ml. A total of 100 μl volume of the bacterial suspension was then added to each well. Following a 24-hour incubation at 37°C, the optical density at 600 nm (OD600) was confirmed by measuring absorbance at 600 nm with a BioTek microplate reader. […] All measurements were repeated three times with duplicates each time.

LPS = assay: BODIPY-TR-cadaverine displacement assay; type: binding
Experimental: The percentage of displacement from LTA-BODIPY/LPS-BODIPY by test compounds was determined according to BODIPY cadaverine displacement assay. […] The mixture was incubated in the dark for 30 min, and then the fluorescence was monitored at an excitation wavelength of 580 nm and an emission wavelength of 620 nm using a BioTek multidetector microplate reader. The percentage of displacement from LTA-BODIPY/LPS-BODIPY was calculated by the following formula: % Displacement = (FS − Fmin)/(Fmax − Fmin) × 100. Where FS is the fluorescence intensity observed at a given test compound concentration, Fmin is the fluorescence intensity of BODIPY with LTA/LPS and DMSO, and Fmax is the fluorescence intensity of BODIPY with only DMSO. All tests were carried out at least twice and with biological replicates.

CCK-8 cytotoxicity assay = type: cell-based
Experimental: Cytotoxicity of the compound tested was assessed by CCK-8 assays as previously described ([71]). […] Following a 24-hour incubation, 10 μl of CCK-8 reagent was added to each well and incubated for 1 hour. The absorbance at 450 nm was measured by a microplate reader. All measurements were repeated three times with duplicates each time.

P. aeruginosa ATCC 9027 = assay: Murine corneal infection model; type: in vivo, mice; conditions: topical, 2 days; XT17 5 mg/ml, gatifloxacin 3 mg/ml; vs 5% glucose control
Excerpt: (§1) Female C57BL/6 mice (average weight, 20 g) were used for the in vivo efficacy experiments. Mice were housed in a specific pathogen–free facility on a 12-hour light-dark cycle, under the condition with ad libitum access to irradiation sterilized rodent diet and aseptic water. […]. These in vivo experiments were approved by the Experimental Animal Center of South China Agricultural University and conducted in accordance with the policies of the Ministry of Health of China.
(§2) The in vivo efficacy of compound XT17 was investigated in a murine corneal infection model. Before infection, the mice were immunosuppressed with three intraperitoneal injections of cyclophosphamide (100 mg/kg) over 5 days. After anesthesia with 2.5% avertin (500 mg/kg, ip), the left corneas of mice were scratched with 15 μl of S. aureus ATCC 29213 or P. aeruginosa ATCC 9027 (approximately 5 × 10^7 CFU/ml). Following 1 day of infection, the infected mice were randomly assigned into […] (n = 5) and subsequently administered with 0.5% compound XT17, 5% glucose solution, 5% vancomycin, or 0.3% gatifloxacin topically. S. aureus–caused murine corneal infections were treated four times a day for three consecutive days. Only 2 days of treatment were given for P. aeruginosa–caused murine corneal infections. On the first day, the drug was administered every 20 min for 1 hour and then three times at 2-hour intervals on the second day. The mice were given a 5% glucose solution as a negative control in the absence of any antimicrobial agent treatment. The infected corneas were collected after the mice were euthanized, and the number of viable bacteria was counted using MHA plates.

S. aureus ATCC 29213 = assay: Murine corneal infection model; type: in vivo, mice; conditions: topical, four times daily for 3 days; XT17 5 mg/ml, vancomycin 50 mg/ml; vs 5% glucose control
Excerpt: as §1, §2

E. coli DNA gyrase = target: T1, E. coli DNA gyrase (Escherichia coli, UniProt P0AES4+P0AES6); assay: DNA gyrase supercoiling inhibition assay; type: biochemical
T1 construct: purchased ProFoldin (Worcester, MA)
Experimental: E. coli topoisomerase enzymes (II and IV) were supplied by ProFoldin (Worcester, MA), and assays were performed according to the manufacturer’s instructions. Briefly, the DNA supercoiling assay was conducted in a volume of 40 μl containing 24 μl of H2O, 4 μl of 10× buffer, 4 μl of 10× relaxed DNA, 4 μl of 10× enzyme, and 4 μl of 10 mM adenosine triphosphate (ATP). Following a 60-min incubation at room temperature, 200 μl of H2O was added to each reaction mixture. Topoisomerase IV decatenation inhibition assay was conducted in a volume of 50 μl containing 38.5 μl of H2O, 5 μl of 10× buffer, 5 μl of 10× concatenated DNA, 0.5 μl of 100× enzyme, and 1 μl of 10 mM ATP. After 60 min of incubation at 37°C, 5 μl of 0.4 M EDTA was added to stop the reaction. […]
In the supercoiling inhibition assay, the fluorescence intensity was measured using freshly prepared 1× H19 dye, which was prepared by diluting 100× H19 dye with 10 mM tris-HCl and 10 mM NaCl (pH 7.0). […] In the decatenation inhibition assay, the change in fluorescence intensity was monitored using the 1× fluorescence dye after diluting the 20× dye with water. The reaction solution eluted from the column was mixed with 150 μl of 1× fluorescence dye. The fluorescence intensity for both assays was lastly detected at 535 nm using an excitation wavelength of 485 nm. […]

[2] = human, HepG2 cells, read-out: Viable cells (%) HepG2 cells
[3] = mouse, NCTC clone 929 fibroblast cells, read-out: %Viable cells NCTC clone 929 cells

T1 sequence (P0AES4 whole entry, one chain of several): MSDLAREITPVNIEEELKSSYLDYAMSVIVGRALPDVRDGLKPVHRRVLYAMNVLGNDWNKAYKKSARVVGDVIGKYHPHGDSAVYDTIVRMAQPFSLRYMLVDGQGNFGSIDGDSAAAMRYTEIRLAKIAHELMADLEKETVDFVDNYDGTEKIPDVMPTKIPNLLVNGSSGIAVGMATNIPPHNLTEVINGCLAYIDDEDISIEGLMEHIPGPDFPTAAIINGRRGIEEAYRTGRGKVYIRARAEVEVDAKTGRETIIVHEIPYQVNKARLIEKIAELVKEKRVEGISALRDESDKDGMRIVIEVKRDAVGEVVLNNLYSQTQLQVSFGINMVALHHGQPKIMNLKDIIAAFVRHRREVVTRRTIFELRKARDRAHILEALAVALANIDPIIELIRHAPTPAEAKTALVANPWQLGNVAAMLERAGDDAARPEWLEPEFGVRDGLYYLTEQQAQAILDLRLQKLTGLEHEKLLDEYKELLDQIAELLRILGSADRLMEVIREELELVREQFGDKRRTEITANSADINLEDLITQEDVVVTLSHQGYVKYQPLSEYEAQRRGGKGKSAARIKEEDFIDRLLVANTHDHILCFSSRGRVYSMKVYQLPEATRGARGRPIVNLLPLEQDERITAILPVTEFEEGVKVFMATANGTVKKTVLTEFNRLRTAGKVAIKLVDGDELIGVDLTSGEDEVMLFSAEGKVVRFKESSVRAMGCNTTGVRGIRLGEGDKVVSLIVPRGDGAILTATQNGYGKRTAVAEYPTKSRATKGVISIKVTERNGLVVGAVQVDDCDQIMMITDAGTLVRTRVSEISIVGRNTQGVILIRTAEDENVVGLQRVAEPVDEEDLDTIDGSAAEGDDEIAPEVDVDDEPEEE

With `CC(C)=CCOc1cc(OCCCNC(=N)N)cc2oc3cc(OCCCNC(=N)N)ccc3c(=O)c12` [XT17] the “fold increase in antibacterial activity” value ([1]; guanidine XT17 versus primary amine XT07) was 8- to 32 fold, the MIC ([1]; read-out: MICs against the tested strains) was 0.39 to 3.12 µg/mL (≈ 0.764 to 6.12 µM) and the “% Displacement from LPS” value (LPS; 1× MIC) was 39.22%. The “% Displacement from LPS” value (LPS; 2× MIC) was 52.67%, the “% Displacement from LPS” value (LPS; 4× MIC) was 69.53% and the “% Displacement from LPS” value (LPS; 8× MIC) was 75.50%. The viability at 24 h, 3.125 μg/ml (CCK-8 cytotoxicity assay; [2]) was 105%, the viability at 24 h, 6.25 μg/ml (CCK-8 cytotoxicity assay; [2]) was 110% and the viability at 24 h, 12.5 μg/ml (CCK-8 cytotoxicity assay; [2]) was 104%. It also gave a viability at 24 h, 25 μg/ml (CCK-8 cytotoxicity assay; [2]) of 83.9%, a viability at 24 h, 50 μg/ml (CCK-8 cytotoxicity assay; [2]) of 62.2 ± 8.01% and a viability at 24 h, 100 μg/ml (CCK-8 cytotoxicity assay; [2]) of 40.6%. The viability at 24 h, 3.125 μg/ml (CCK-8 cytotoxicity assay; [3]) was 90%, the viability at 24 h, 6.25 μg/ml (CCK-8 cytotoxicity assay; [3]) was 87.9% and the viability at 24 h, 12.5 μg/ml (CCK-8 cytotoxicity assay; [3]) was 87.7%. The viability at 24 h, 25 μg/ml (CCK-8 cytotoxicity assay; [3]) was 78.9 ± 3.46%, the viability at 24 h, 50 μg/ml (CCK-8 cytotoxicity assay; [3]) was 51.6 ± 2.46% and the viability at 24 h, 100 μg/ml (CCK-8 cytotoxicity assay; [3]) was 8.16%. The “log reduction in viable bacterial colonies in the infected corneas” value (P. aeruginosa ATCC 9027) was 2.88 log, the “log reduction in viable bacterial colonies in the infected corneas” value (S. aureus ATCC 29213) was 6.10 log and the “Inhibition of DNA gyrase (%)” value (E. coli DNA gyrase; 1× MIC) was 81.45 ± 1.33%. The “inhibitory effect on bacterial DNA gyrase in vitro” value (E. coli DNA gyrase; concentration not stated (Discussion)) was ~ 90%.
